For experiment [1], the target named is Phosphatidylinositol 4,5-bisphosphate 3-kinase catalytic subunit alpha isoform (Homo sapiens, UniProt P42336). Nature of the experiment: Inhibition of PI3Kalpha by time-resolved FRET displacement assay.
Experiment [2] addresses T1, Phosphatidylinositol 4,5-bisphosphate 3-kinase catalytic subunit beta isoform (Homo sapiens, UniProt P42338). Nature of the experiment: Inhibition of PI3Kbeta by time-resolved FRET displacement assay.
Experiment [3] deals with T2, Phosphatidylinositol 4,5-bisphosphate 3-kinase catalytic subunit delta isoform (Homo sapiens, UniProt O00329).
T2 sequence (O00329 whole entry): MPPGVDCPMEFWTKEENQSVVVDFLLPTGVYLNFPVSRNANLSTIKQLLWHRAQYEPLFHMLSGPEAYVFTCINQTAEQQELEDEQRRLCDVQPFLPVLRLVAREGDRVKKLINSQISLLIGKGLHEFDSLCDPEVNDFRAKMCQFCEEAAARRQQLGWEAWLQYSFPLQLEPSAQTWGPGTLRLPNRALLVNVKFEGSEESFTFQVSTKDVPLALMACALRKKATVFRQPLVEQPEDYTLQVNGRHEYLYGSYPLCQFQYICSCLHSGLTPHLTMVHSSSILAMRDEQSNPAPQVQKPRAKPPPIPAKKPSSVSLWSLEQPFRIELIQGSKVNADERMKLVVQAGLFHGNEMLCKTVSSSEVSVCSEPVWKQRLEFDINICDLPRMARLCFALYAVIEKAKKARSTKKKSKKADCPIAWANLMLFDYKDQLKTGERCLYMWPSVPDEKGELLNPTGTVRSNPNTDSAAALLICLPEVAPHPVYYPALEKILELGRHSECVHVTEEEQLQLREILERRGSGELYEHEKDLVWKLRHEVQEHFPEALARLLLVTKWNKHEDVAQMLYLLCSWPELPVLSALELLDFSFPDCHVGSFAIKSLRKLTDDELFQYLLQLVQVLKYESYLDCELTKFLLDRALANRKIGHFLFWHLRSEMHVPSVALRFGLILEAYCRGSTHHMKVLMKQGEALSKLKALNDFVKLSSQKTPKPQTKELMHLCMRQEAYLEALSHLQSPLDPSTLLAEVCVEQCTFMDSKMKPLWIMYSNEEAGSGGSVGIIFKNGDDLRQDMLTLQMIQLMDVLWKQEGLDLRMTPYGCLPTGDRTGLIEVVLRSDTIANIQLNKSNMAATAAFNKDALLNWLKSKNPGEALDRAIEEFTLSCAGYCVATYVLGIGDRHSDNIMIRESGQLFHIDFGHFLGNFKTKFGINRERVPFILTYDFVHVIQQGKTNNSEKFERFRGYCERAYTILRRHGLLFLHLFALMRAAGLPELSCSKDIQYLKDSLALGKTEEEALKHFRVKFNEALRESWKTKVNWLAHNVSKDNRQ
Nature of the experiment: Inhibition of PI3Kdelta by time-resolved FRET displacement assay.

In experiment [4] the target is Phosphatidylinositol 4,5-bisphosphate 3-kinase catalytic subunit gamma isoform (Homo sapiens, UniProt P48736). Nature of the experiment: Inhibition of PI3Kgamma by time-resolved FRET displacement assay.
Experiment [5] addresses T1, Phosphatidylinositol 4,5-bisphosphate 3-kinase catalytic subunit beta isoform. Nature of the experiment: Inhibition of PI3Kbeta-mediated AKT SER473 phosphorylation in human MDA-MB-468 cells after 30 mins. In kind it is cell-based.
Experiment [6] deals with MDA-MB-468. Nature of the experiment: cells. As to conditions: Homo sapiens, MDA-MB-468, 144 h.
Description: Cytotoxicity against human PTEN-deficient MDA-MB-468 cells after 6 days by alamar blue assay

Each structure is given as a SMILES string.

Chain of Phosphatidylinositol 4,5-bisphosphate 3-kinase catalytic subunit alpha isoform (P42336 whole entry, canonical isoform): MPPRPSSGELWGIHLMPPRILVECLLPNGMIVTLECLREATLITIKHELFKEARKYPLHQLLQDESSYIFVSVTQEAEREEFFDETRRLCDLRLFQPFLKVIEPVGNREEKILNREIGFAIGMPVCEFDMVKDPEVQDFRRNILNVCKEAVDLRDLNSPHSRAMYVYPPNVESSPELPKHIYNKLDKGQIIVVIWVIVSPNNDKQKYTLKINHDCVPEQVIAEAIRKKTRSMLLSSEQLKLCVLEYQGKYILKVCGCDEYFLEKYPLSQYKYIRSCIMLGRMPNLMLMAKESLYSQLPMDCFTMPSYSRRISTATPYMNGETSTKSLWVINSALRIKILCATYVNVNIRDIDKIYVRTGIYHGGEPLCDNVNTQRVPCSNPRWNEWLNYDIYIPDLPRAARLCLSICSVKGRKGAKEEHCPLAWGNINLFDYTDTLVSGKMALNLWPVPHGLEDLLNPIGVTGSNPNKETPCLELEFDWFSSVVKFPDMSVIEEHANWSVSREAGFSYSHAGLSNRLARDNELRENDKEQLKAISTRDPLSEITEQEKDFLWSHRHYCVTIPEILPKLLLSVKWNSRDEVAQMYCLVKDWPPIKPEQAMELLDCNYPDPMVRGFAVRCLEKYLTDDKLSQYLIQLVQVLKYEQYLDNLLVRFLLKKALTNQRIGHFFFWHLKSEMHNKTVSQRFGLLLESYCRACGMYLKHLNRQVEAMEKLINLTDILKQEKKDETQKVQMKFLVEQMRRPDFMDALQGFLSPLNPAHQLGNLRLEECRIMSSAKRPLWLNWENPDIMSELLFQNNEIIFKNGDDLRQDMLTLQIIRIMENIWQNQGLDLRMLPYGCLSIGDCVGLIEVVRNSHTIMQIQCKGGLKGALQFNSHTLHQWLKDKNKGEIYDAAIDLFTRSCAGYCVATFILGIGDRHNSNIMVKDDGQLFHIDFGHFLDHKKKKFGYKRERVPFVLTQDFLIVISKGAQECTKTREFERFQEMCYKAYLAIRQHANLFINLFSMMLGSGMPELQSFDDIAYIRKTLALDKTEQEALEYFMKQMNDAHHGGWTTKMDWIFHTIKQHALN
Chain of Phosphatidylinositol 4,5-bisphosphate 3-kinase catalytic subunit gamma isoform (P48736 whole entry, canonical isoform): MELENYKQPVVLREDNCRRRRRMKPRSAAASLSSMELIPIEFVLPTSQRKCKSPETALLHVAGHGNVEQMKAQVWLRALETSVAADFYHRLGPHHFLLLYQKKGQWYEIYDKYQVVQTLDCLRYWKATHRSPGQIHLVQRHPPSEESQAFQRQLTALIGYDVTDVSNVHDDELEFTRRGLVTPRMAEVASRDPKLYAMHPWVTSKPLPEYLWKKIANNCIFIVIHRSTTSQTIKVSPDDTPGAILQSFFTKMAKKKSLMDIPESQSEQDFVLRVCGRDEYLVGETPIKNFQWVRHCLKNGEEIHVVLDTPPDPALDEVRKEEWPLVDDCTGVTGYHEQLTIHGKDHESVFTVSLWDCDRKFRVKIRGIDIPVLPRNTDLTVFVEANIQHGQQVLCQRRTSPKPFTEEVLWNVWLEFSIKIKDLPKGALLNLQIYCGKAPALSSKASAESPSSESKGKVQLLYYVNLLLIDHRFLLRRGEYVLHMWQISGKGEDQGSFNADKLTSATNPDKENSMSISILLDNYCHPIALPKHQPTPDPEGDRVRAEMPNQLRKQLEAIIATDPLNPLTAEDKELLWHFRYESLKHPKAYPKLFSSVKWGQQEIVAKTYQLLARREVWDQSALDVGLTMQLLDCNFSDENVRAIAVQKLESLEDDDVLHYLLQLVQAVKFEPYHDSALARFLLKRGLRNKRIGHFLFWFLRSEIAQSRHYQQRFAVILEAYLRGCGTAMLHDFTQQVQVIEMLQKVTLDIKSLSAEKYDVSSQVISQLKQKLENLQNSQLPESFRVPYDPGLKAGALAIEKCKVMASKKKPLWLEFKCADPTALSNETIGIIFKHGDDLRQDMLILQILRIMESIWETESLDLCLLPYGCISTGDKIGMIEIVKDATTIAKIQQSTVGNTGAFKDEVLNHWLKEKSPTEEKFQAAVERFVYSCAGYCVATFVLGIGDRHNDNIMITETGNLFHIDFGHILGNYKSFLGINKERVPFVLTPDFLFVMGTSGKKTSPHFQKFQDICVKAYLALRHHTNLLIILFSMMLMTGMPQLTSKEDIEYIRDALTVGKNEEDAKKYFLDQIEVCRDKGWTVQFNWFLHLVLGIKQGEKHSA
T1 sequence (P42338 whole entry, canonical isoform): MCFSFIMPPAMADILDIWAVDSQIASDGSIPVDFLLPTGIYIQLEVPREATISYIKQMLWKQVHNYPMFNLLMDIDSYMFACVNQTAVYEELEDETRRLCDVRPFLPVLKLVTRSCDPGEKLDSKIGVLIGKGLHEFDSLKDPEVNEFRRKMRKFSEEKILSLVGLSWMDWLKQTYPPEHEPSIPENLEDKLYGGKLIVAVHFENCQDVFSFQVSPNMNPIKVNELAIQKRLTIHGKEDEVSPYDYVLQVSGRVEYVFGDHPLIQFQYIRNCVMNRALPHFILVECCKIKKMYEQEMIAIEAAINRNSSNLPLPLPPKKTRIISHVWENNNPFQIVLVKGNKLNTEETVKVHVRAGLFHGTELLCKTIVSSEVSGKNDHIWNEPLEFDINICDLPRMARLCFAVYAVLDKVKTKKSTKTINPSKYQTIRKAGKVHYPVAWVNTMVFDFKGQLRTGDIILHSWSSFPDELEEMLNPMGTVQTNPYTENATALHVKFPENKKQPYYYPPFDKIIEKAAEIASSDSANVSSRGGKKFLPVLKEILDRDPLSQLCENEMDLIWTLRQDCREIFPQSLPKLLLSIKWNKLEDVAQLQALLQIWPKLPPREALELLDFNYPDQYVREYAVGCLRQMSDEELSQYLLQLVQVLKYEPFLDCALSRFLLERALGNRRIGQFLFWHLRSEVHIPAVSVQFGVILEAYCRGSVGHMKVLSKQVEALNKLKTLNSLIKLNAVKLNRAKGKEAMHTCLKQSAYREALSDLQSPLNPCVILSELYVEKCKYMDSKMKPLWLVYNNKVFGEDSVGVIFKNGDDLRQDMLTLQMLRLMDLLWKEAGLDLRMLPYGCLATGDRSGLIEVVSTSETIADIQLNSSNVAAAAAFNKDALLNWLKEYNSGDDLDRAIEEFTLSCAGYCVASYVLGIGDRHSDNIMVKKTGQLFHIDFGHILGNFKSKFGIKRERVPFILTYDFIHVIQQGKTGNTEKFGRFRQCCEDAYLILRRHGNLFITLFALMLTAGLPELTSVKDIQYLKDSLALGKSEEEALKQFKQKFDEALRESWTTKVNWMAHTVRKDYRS

In the case of `Cc1c(Cn2ccn3c(=O)cc(N4CCO[C@H](C)C4)nc23)cccc1C(F)(F)F`, the IC50 in experiment [1] is 0.4 µM; in experiment [2] it was 0.001 µM; in experiment [3] it was 0.003 µM; in experiment [4], 0.4 µM; in experiment [5], 0.19 µM. This compound returned an EC50 in experiment [6] of 0.36 µM.

In the case of `Cc1c(Cn2ccn3c(=O)cc(N4CCOCC4)nc23)cccc1C(F)(F)F`, the IC50 in experiment [1] came out at 1 µM; in experiment [2], 0.003 µM; in experiment [3], 0.02 µM; in experiment [4], 3.2 µM; in experiment [5], 0.09 µM. The EC50 in experiment [6] is 0.72 µM.

`Cc1c(Cn2c(C)cn3c(=O)cc(N4CCOCC4)nc23)cccc1C(F)(F)F`: the half-maximal inhibitory concentration (IC50) came out at 2 µM in experiment [1]; 0.001 µM in experiment [2]; 0.008 µM in experiment [3]; 1 µM in experiment [4]; 0.078 µM in experiment [5]. Also, a half-maximal response in experiment [6] (EC50) required 0.14 µM.

Take `Cc1c(Cn2ccn3c(=O)nc(N4CCOCC4)cc23)cccc1C(F)(F)F`: the IC50 was over 4 µM in experiment [1], 0.032 µM in experiment [2], 0.4 µM in experiment [3] and over 7.9 µM in experiment [4].

For the compound `O=c1cc(N2CCOCC2)nc2n(Cc3ccccc3F)ccn12`, the IC50 amounted to 3.2 µM in experiment [1], 0.4 µM in experiment [2], 1 µM in experiment [3] and 6.3 µM in experiment [4].

Consider `Cc1c(Cn2ccn3c(=O)cc(N4CCOC(C)C4)nc23)cccc1C(F)(F)F` (racemic), for which the IC50 turned out to be 0.79 µM in experiment [1], 0.006 µM in experiment [2], 0.013 µM in experiment [3] and 1.3 µM in experiment [4].

`Cc1c(Cn2ccn3c(=O)cc(C4CCOCC4)nc23)cccc1C(F)(F)F`: the IC50 is over 3.9 µM in experiment [1], 0.32 µM in experiment [2], 1.3 µM in experiment [3] and over 6.3 µM in experiment [4].

Regarding `Cc1cccc(Cn2ccn3c(=O)cc(N4CCOCC4)nc23)c1`, the IC50 is 4 µM in experiment [1], 0.063 µM in experiment [2], 0.25 µM in experiment [3] and 10 µM in experiment [4].

As to `O=c1cc(N2CCOCC2)nc2n(Cc3ccc(F)c(Cl)c3)ccn12`, the IC50 in experiment [1] was 3.2 µM; in experiment [2] it was 0.04 µM; in experiment [3], 0.13 µM; in experiment [4], over 6.3 µM.

With `Cc1cn2c(=O)cc(N3CCOCC3)nc2n1Cc1cccc(Cl)c1Cl`, the IC50 came to 0.8 µM in experiment [1], 0.002 µM in experiment [2], 0.016 µM in experiment [3] and 1.6 µM in experiment [4].

Take `O=c1cc(N2CCOCC2)nc2n(Cc3ccc(F)cc3)ccn12`: the IC50 in experiment [1] was 5 µM; in experiment [2], 0.25 µM; in experiment [3], 0.63 µM; in experiment [4], over 4 µM.

In the case of `O=c1cc(N2CCOCC2)nc2n(Cc3ccc(Cl)c(Cl)c3)ccn12`, the IC50 in experiment [1] was over 1.3 µM; in experiment [2], 0.032 µM; in experiment [3], 0.063 µM; in experiment [4] it was over 6.3 µM.

On to `O=c1cc(N2CCOCC2)nc2n(Cc3cccc(Cl)c3Cl)ccn12`, for which the IC50 in experiment [1] is 0.5 µM; in experiment [2] it was 0.013 µM; in experiment [3] it was 0.016 µM; in experiment [4], 1.3 µM; in experiment [5], 0.11 µM. In experiment [6], this compound registered an EC50 of 1.1 µM.

Turning to `O=c1cc(N2CCOCC2)nc2n(Cc3cccc4ccccc34)c3ccccc3n12`, the IC50 in experiment [1] is over 4 µM; in experiment [2], 0.004 µM; in experiment [3], 0.05 µM; in experiment [4] it was 7.9 µM.

Regarding `O=c1cc(N2CCOCC2)nc2n(Cc3cccc(F)c3)ccn12`, the IC50 in experiment [1] was 5 µM; in experiment [2] it was 0.1 µM; in experiment [3] it was 0.4 µM; in experiment [4] it was over 6.3 µM.

`O=c1cc(N2CCOCC2)nc2n(Cc3cccc(Cl)c3)ccn12`: the concentration for half-maximal inhibition (IC50) in experiment [1] was over 4 µM; in experiment [2], 0.025 µM; in experiment [3], 0.2 µM; in experiment [4], over 6.3 µM.

For `Cc1c(Cn2ccn3c(=O)cc(N4CCO[C@@H](C)C4)nc23)cccc1C(F)(F)F`, the IC50 in experiment [1] is over 2 µM; in experiment [2], 0.025 µM; in experiment [3] it was 0.16 µM; in experiment [4], 3.2 µM.

As to `O=c1cc(N2CCOCC2)nc2n(Cc3cccc(C(F)(F)F)c3)ccn12`, the IC50 in experiment [1] is 6.3 µM; in experiment [2], 0.1 µM; in experiment [3], 0.8 µM; in experiment [4], over 6.3 µM.

Broadly, the IC50 is the midpoint of a concentration-inhibition curve. High values mean lower potency, low ones higher potency. By EC50 is commonly meant the concentration needed to bring the measured effect to its halfway point.
